Measurements: US12595230B2, “Substituted 6,7-dihydro-5H-benzo[7]annulene compounds and their derivatives, processes for their preparation and therapeutic uses thereof” (Sanofi, priority 2020, dated 2026)

Molecular target: T1, ERα (Homo sapiens, UniProt P03372)
T1 construct: host or cells: MCF7
T1 sequence (P03372 1-595): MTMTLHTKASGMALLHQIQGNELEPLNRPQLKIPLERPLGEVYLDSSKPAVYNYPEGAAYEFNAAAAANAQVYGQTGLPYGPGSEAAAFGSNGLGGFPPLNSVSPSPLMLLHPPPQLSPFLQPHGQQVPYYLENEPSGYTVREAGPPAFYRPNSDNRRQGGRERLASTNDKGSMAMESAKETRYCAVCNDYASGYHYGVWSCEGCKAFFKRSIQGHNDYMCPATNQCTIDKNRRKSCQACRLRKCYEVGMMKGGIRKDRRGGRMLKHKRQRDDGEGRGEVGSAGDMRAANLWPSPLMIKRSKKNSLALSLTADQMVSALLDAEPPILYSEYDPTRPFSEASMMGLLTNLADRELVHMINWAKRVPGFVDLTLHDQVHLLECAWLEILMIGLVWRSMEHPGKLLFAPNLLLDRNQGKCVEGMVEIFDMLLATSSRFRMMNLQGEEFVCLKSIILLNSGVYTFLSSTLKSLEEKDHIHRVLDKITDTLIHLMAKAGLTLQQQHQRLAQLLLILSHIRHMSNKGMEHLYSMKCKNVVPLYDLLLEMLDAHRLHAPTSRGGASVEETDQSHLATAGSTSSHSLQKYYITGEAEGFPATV
Assay: Estrogen receptor degradation activity: breast cancer cell ERα in cell western assay (MCF7 cells)
Assay type: cell-based
Conditions: for % Degradation At 0.3 μM: 4 hours, relative to fulvestrant 0.1 μM positive control; for DC50: 4 hours post compound addition, concentration which degrades 50% of the estrogen receptor, read-out: Degradation IC50
Summary of the method: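 Compounds were applied to MCF7 cells in stripped-serum, phenol red-free medium for 4 h at final 0.3–0.0000018 μM, with fulvestrant (0.1 μM) as control. Value: IC50 (nM) for 50% ERα degradation.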

SMILES: O=C(O)c1ccc2c(c1)CCCC(c1ccc(F)c(F)c1)=C2c1ccc(CC2CN(CCCF)C2)cc1 [Example 45, 8-(3,4-difluorophenyl)-9-(4-((1-(3-fluoropropyl)azetidin-3-yl)methyl)phenyl)-6,7-dihydro-5H-benzo[7]annulene-3-carboxylic acid]
- % Degradation At 0.3 μM: 86%
- DC50: 0.3 nM

SMILES: O=C(O)c1ccc2c(c1)CCCC(c1ccccc1C(F)(F)F)=C2c1ccc(CC2CN(CCCF)C2)cc1 [Example 23, 9-(4-((1-(3-fluoropropyl)azetidin-3-yl)methyl)phenyl)-8-(2-(trifluoromethyl)phenyl)-6,7-dihydro-5H-benzo[7]annulene-3-carboxylic acid]
- % Degradation At 0.3 μM: 91%
- DC50: 0.2 nM

SMILES: O=C(O)c1ccc2c(c1)CCCC(c1ccc(Cl)cc1Cl)=C2c1ccc(C(=O)C2CN(CCCF)C2)cc1 [Example 39, 8-(2,4-Dichlorophenyl)-9-(4-(1-(3-fluoropropyl)azetidine-3-carbonyl)phenyl)-6,7-dihydro-5H-benzo[7]annulene-3-carboxylic Acid]
- % Degradation At 0.3 μM: 92%
- DC50: 1.2 nM

SMILES: O=C(O)c1ccc2c(c1)CCCC(c1ccccc1C(F)(F)F)=C2c1ccc(CC2(F)CN(CCCF)C2)cc1 [Example 238, 9-(4-((3-fluoro-1-(3-fluoropropyl)azetidin-3-yl)methyl)phenyl)-8-(2-(trifluoromethyl)phenyl)-6,7-dihydro-5H-benzo[7]annulene-3-carboxylic acid]
- % Degradation At 0.3 μM: 81%
- DC50: 1.2 nM

SMILES: Cc1ccc(C2=C(c3ccc(CC4CN(CCCF)C4)cc3)c3ccc(C(=O)O)cc3CCC2)c(C)c1.Cl [Example 10, 8-(2,4-dimethylphenyl)-9-(4-((1-(3-fluoropropyl)azetidin-3-yl)methyl)phenyl)-6,7-dihydro-5H-benzo[7]annulene-3-carboxylic acid]
- % Degradation At 0.3 μM: 92%
- DC50: 0.3 nM

SMILES: Cc1c(F)cccc1C1=C(c2ccc(CC3CN(CCCF)C3)cc2)c2ccc(C(=O)O)cc2CCC1 [Example 28, 8-(3-fluoro-2-methylphenyl)-9-(4-((1-(3-fluoropropyl)azetidin-3-yl)methyl)phenyl)-6,7-dihydro-5H-benzo[7]annulene-3-carboxylic acid]
- % Degradation At 0.3 μM: 93%
- DC50: 0.4 nM

SMILES: CCC1CCc2cc(C(=O)O)ccc2C(c2ccc(CC3CN(CCCF)C3)cc2)=C1c1ccc(Cl)cc1 (racemic) [Example 315, 8-(4-chlorophenyl)-7-ethyl-9-(4-((1-(3-fluoropropyl)azetidin-3-yl)methyl)phenyl)-6,7-dihydro-5H-benzo[7]annulene-3-carboxylic acid]
- % Degradation At 0.3 μM: 87%
- DC50: 1 nM

SMILES: O=C(O)c1ccc2c(c1)CCCC(C1CC3CCC(C3)C1)=C2c1ccc(CC2CN(CCCF)C2)cc1 (centres unmarked) [Example 316, 8-(bicyclo[3.2.1]octan-3-yl)-9-(4-((1-(3-fluoropropyl)azetidin-3-yl)methyl)phenyl)-6,7-dihydro-5H-benzo[7]annulene-3-carboxylic acid]
- % Degradation At 0.3 μM: 81%
- DC50: 1.2 nM

SMILES: COc1c(C(=O)O)ccc2c1CCCC(c1ccc(F)cc1F)=C2c1ccc(CC2CN(CCCF)C2)cc1 [Example 270, 8-(2,4-difluorophenyl)-9-(4-((1-(3-fluoropropyl)azetidin-3-yl)methyl)phenyl)-4-methoxy-6,7-dihydro-5H-benzo[7]annulene-3-carboxylic acid]
- % Degradation At 0.3 μM: 100%
- DC50: 225 nM

SMILES: CCC1CCc2cc(C(=O)O)ccc2C(c2ccc(CC3CN(CCCF)C3)cc2)=C1c1ccc(Cl)cc1 (single isomer, unassigned) [Example 329, 8-(4-chlorophenyl)-7-ethyl-9-(4-((1-(3-fluoropropyl)azetidin-3-yl)methyl)phenyl)-6,7-dihydro-5H-benzo[7]annulene-3-carboxylic acid]
- % Degradation At 0.3 μM: 89%
- DC50: 1.3 nM

SMILES: Cl.O=C(O)c1ccc2c(c1)CCCC(C1=CCC(F)(F)CC1)=C2c1ccc(CC2CN(CCCF)C2)cc1 [Example 5, 8-(4,4-difluorocyclohex-1-en-1-yl)-9-(4-((1-(3-fluoropropyl)azetidin-3-yl)methyl)phenyl)-6,7-dihydro-5H-benzo[7]annulene-3-carboxylic acid]
- % Degradation At 0.3 μM: 86%
- DC50: 0.5 nM

SMILES: Cl.O=C(O)c1ccc2c(c1)CCCC(c1ccc(Cl)cc1Cl)=C2c1ccc(C2(C3CN(CCCF)C3)CC2)cc1 [Example 215, 8-(2,4-dichlorophenyl)-9-(4-(1-(1-(3-fluoropropyl)azetidin-3-yl)cyclopropyl)phenyl)-6,7-dihydro-5H-benzo[7]annulene-3-carboxylic acid hydrochloride]
- % Degradation At 0.3 μM: 67%
- DC50: 0.3 nM

SMILES: O=C(O)c1cc2c(cc1F)C(c1ccc(CC3CN(CCCF)C3)cc1)=C(c1ccc(Cl)cc1Cl)CCC2 [Example 206, 8-(2,4-dichlorophenyl)-2-fluoro-9-(4-((1-(3-fluoropropyl)azetidin-3-yl)methyl)phenyl)-6,7-dihydro-5H-benzo[7]annulene-3-carboxylic acid]
- % Degradation At 0.3 μM: 86%
- DC50: 0.4 nM

SMILES: O=C(O)c1ccc2c(c1)CCCC(c1cnccc1C(F)(F)F)=C2c1ccc(CC2CN(CCCF)C2)cc1 [Example 214, 9-(4-((1-(3-fluoropropyl)azetidin-3-yl)methyl)phenyl)-8-(4-(trifluoromethyl)pyridin-3-yl)-6,7-dihydro-5H-benzo[7]annulene-3-carboxylic acid]
- % Degradation At 0.3 μM: 86%
- DC50: 2.8 nM

SMILES: Cc1c(F)ccc(C2=C(c3ccc(CC4CN(CCCF)C4)cc3)c3ccc(C(=O)O)cc3CCC2C)c1C (racemic) [Example 309, 8-(4-fluoro-2,3-dimethylphenyl)-9-(4-((1-(3-fluoropropyl)azetidin-3-yl)methyl)phenyl)-7-methyl-6,7-dihydro-5H-benzo[7]annulene-3-carboxylic acid]
- % Degradation At 0.3 μM: 88%
- DC50: 0.4 nM

SMILES: O=C(O)c1ccc2c(c1)CCCC(c1ccccc1Cl)=C2c1ccc(CC2CN(CCCF)C2)cc1 [Example 3, 8-(2-chlorophenyl)-9-(4-((1-(3-fluoropropyl)azetidin-3-yl)methyl)phenyl)-6,7-dihydro-5H-benzo[7]annulene-3-carboxylic acid]
- % Degradation At 0.3 μM: 89%
- DC50: 0.3 nM
